Read-outs that look alike come from different tables or passages of the source.
Legend:
Type in all cases: binding
FBW7^ARG (RLFBW7) alone = molecular target: T1, FBW7^ARG (RLFBW7) alone (Homo sapiens, UniProt Q969H0, R505L); assay: Counterscreen 1 ALPHAscreen with FBW7^ARG alone (CSRUN1/DCSRUN1); conditions: dose-response counterscreen; for Emax: read-out: RLFBW7 ACT DCSRUN1 Averaged Max % Response
T1 construct: GST (TEV site and flexible linker) (N, cleaved yes); made in house; host or cells: SF9 insect cells (baculovirus)
In short: (§1)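 Dose-response in triplicate, 10 points in 3-fold steps with a top concentration near 87 μM. Each counterscreen lacks one partner (FBW7^ARG alone or pCycE alone), giving signal not due to the binding pair. Activity is % activation versus WT-FBW7+pCycE; positive threshold 10%.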

pCycE alone = assay: Counterscreen 2 ALPHAscreen with cyclin E phosphopeptide alone (CSRUN2/DCSRUN2); conditions: for CyCEP ACT DCSRUN2 Averaged Max % Response: activation relative to WT-FBW7+pCycE, averaged maximum; for EC50: dose-response, triplicate, 10 point 3-fold dilutional series, read-out: CyCEP ACT DCSRUN2 Final EC50
In short: as §1

FBW7^ARG+pCycE = molecular target: T2, FBW7^ARG+pCycE (Homo sapiens, UniProt Q969H0, R505L); assay: FBW7^ARG-cyclin E agonist ALPHAscreen (primary PRUN, confirmation CRUN1, dose-response DRUN); conditions: for EC50 / Emax: DRUN dose-response; for Emax: relative to WT-FBW7+pCycE, read-out: FBW7 ACT Averaged Max % Response
T2 construct: GST (TEV site and flexible linker) (N, cleaved yes); made in house; host or cells: SF9 insect cells (baculovirus)
In short: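 Compounds tested once at 26.1 μM (primary; confirmation in triplicate) or in a triplicate 10-point 3-fold dilution up to ~87 μM (dose-response). Bridging of 25 nM mutant FBW7 R505L to 25 nM biotinylated phosphorylated cyclin E peptide detected by Ni-acceptor/streptavidin-donor ALPHA signal, normalized to WT-FBW7+pCycE.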

[1] = raw curve fit, read-out: RLFBW7 ACT DCSRUN1 EC50 Curve Fit Raw
[2] = read-out: RLFBW7 ACT DCSRUN1 Final EC50
[3] = raw curve fit, read-out: FBW7 ACT EC50 Curve Fit Raw, Molar
[4] = triplicate, 10 point 3-fold dilution, max approx. 87 μM, read-out: FBW7 ACT Final EC50, Molar
[5] = confirmation assay, triplicate, single concentration 26.1 μM, read-out: FBW7 ACT CRUN1 Avg % Response and Stdev
[6] = primary screen, 1536-well, 26.1 μM, FBW7^ARG + pCycE degron peptide, high control wt-FBW7+pCycE, read-out: FBW7 ACT PRUN % Response

T1 sequence (Q969H0 64-707 R505L): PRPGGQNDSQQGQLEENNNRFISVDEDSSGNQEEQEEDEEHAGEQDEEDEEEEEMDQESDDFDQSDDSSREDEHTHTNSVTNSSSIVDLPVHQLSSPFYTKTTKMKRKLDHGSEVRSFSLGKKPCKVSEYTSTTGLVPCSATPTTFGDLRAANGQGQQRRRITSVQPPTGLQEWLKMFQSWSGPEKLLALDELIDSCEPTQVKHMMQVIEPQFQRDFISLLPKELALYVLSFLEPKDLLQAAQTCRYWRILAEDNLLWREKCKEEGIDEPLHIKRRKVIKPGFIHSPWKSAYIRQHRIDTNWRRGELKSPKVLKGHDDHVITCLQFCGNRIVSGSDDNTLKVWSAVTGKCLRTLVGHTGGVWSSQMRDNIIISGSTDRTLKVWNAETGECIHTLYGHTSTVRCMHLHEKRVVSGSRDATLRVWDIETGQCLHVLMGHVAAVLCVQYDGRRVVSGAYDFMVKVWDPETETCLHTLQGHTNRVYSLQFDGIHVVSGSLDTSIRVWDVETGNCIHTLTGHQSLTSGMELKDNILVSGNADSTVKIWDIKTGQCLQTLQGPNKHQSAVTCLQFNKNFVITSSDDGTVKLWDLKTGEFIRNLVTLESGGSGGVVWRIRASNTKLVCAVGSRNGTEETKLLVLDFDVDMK
T1 sequence (P63208 2-163 partner): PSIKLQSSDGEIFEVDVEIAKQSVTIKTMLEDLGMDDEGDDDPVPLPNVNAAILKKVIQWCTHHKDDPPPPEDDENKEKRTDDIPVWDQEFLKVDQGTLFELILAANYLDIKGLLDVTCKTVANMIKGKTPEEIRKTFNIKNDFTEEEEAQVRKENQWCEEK
T2 sequence (Q969H0 64-707 R505L): as the sequence (Q969H0 64-707 R505L) above
T2 sequence (P63208 2-163 partner): as the sequence (P63208 2-163 partner) above

Row | SMILES | EC50 (FBW7^ARG (RLFBW7) alone; [1]) | Emax (FBW7^ARG (RLFBW7) alone) | EC50 (FBW7^ARG (RLFBW7) alone; [2]) | CyCEP ACT DCSRUN2 Averaged Max % Response (pCycE alone) | EC50 (pCycE alone) | EC50 (FBW7^ARG+pCycE; [3]) | Emax (FBW7^ARG+pCycE) | EC50 (FBW7^ARG+pCycE; [4]) | activation at 26.1 µM (FBW7^ARG+pCycE; [5]) | activation at 26.1 µM (FBW7^ARG+pCycE; [6])
1 | COCCOC(=O)C1=C(C)NC2=C(C(=O)CC(c3ccccc3)C2)C1c1ccc(OCc2ccccc2)cc1 (stereo not drawn) [SR-01000422392-1] | 0.689 µM | 3% | > 51.3 µM | −57.8E−3% | > 51.3 µM | 30.4 µM | 8.49% | > 51.3 µM | 5.36 ± 0.53% | 3.41%
2 | CCSCCOC(=O)C1=C(C)NC2=C(C(=O)CCC2)C1c1ccc(Br)cc1 (stereo not drawn) [SR-01000422432-1] | 24.5 µM | 0.86% | > 54.4 µM | 0.21% | > 54.4 µM | 7.1 µM | 7.86% | > 54.4 µM | 5.2 ± 0.56% | 2.03%
3 | CCC(C)OC(=O)C1=C(C)NC2=C(C(=O)CC(c3ccc(Cl)cc3)C2)C1c1cccc(Cl)c1 (stereo not drawn) [SR-01000422821-1] | 24.1 µM | 4.29% | > 45.8 µM | 0.13% | > 45.8 µM | 16 µM | 9.85% | > 45.8 µM | 6.44 ± 0.56% | 1.86%
4 | COc1ccccc1C1C(C(=O)OC2CCCC2)=C(C)NC2=C1C(=O)CC(c1ccccc1)C2 (stereo not drawn) [SR-01000422836-1] | 16.4 µM | 4.23% | > 45.9 µM | 0.14% | > 45.9 µM | 2400 µM | 10.3% | > 45.9 µM | 5.59 ± 0.74% | 2.6%
5 | CCC(C)OC(=O)C1=C(C)NC2=C(C(=O)CC(c3ccccc3)C2)C1c1cccc2ccccc12 (stereo not drawn) [SR-01000423185-1] |  | 8.99% | > 47.6 µM | 11.24% | > 47.6 µM | 15.9 µM | 13% | > 47.6 µM | 5.54 ± 0.29% | 2.18%
6 | CC1=C(C(=O)OCc2ccccc2)C(c2cn(-c3ccccc3)nc2-c2ccc(F)cc2)C(C(=O)OCc2ccccc2)=C(C)N1 [SR-01000425637-1] |  | 1.54% | > 34.2 µM | 2.59% | > 34.2 µM | 0.0034 µM | 8.34% | > 34.2 µM | 4.66 ± 1.07% | 1.93%
7 | CCSCCOC(=O)C1=C(C)NC2=C(C(=O)CC(c3ccccc3)C2)C1c1ccc(OC)cc1OC (stereo not drawn) [SR-01000425645-1] | 0.0044 µM | 0.91% | > 41.4 µM | 2.61% | > 41.4 µM | 0.0036 µM | 7.92% | > 41.4 µM | 5.16 ± 0.69% | 2.28%
8 | COc1ccc(COC(=O)C2=C(C)NC3=C(C(=O)CC(C)(C)C3)C2c2ccccc2)cc1 (stereo not drawn) [SR-01000427708-1] | 0.0056 µM | 1.53% | > 62.2 µM | 1.77% | > 62.2 µM | 23.8 µM | 8.75% | > 62.2 µM | 5.27 ± 1.17% | 2.58%
9 | COc1ccc(N2C(=O)CC(SCCN)C2=O)cc1 (stereo not drawn) [SR-01000428800-1] | 0.0102 µM | 1.48% | > 87.4 µM | 2.47% | > 87.4 µM | 15.1 µM | 9.73% | > 87.4 µM | 11.2 ± 1.65% | 2.51%
10 | Fc1ccccc1CSc1nnnn1-c1ccccc1F [SR-01000432842-1] | 0.0102 µM | 1.65% | > 72.9 µM | 2.47% | > 72.9 µM | 0.0082 µM | 8.63% | > 72.9 µM | 5.32 ± 2.7% | 2.34%
11 | CCOC(=O)C1CCN(C(=O)Nc2ccc(NC(=O)C3CCN(C(=O)OCC)CC3)cc2)CC1 [SR-01000451467-1] | 0.0074 µM | 1.76% | > 45.3 µM | 2.82% | > 45.3 µM | 9.6 µM | 15.5% | > 45.3 µM | 5.81 ± 0.4% | 6.08%
12 | CCOc1ccc(Br)cc1C1C2=C(CCCC2=O)N(CC(=O)O)C2=C1C(=O)CCC2 [SR-01000476712-1] | 0.0052 µM | 1.87% | > 43.6 µM | 2.30% | > 43.6 µM | 0.0054 µM | 8.52% | > 43.6 µM | 3.84 ± 1.06% | 1.93%
13 | Cc1ccc(-c2nnc(N3CCN(C(=O)c4ccco4)CC3)c3ccccc23)cc1 [SR-01000505133-1] | 0.008 µM | 2.77% | > 54 µM | 1.77% | > 54 µM | 19.6 µM | 16.5% | > 54 µM | 2.31 ± 0.38% | 2.28%
14 | CCCCCCCC(=O)Nc1ccc(C(=O)Nc2ccc(O)c(C(=O)O)c2)cc1 [SR-01000507444-1] |  | 1.89% | > 49.3 µM | 2.05% | > 49.3 µM | 5.7 µM | 13.7% | > 49.3 µM | 4.18 ± 0.65% | 4.07%
15 | COc1ccc(SCC(=O)NNC(=S)Nc2ccccc2)cc1 [SR-01000526835-1] | 7.5 µM | 2.56% | > 56.6 µM | 2.80% | > 56.6 µM | 7.3 µM | 10.1% | > 56.6 µM | 2.1 ± 0.29% | 2.07%
16 | CCOC(=O)C1=CN(Cc2ccc(OC)cc2)C=C(C(=O)OCC)C1c1ccccc1OCc1ccccc1 [SR-01000587933-1] |  | 3.64% |  | 2.45% | > 44.2 µM |  | 12% |  | 2.81 ± 0.04% | 2.16%
17 | Cn1nc(CC(=O)Nc2ccc(F)c(Cl)c2)c2ccccc2c1=O [SR-01000589827-1] |  | -0.247% | > 85 µM | 0.04% | > 85 µM | 0.698 µM | 7.32% | > 85 µM | 2.48 ± 0.45% | 1.93%
